According to patent US6387411B2, “Method for producing dispersible sterol and stanol compounds” (McNeil-PPC, Inc., priority 1998, dated 2002):

How the values were obtained:
[1] = Turbidity of ground sterol/docusate sodium matrix shaken in water; format: physicochemical; settings: shaken 30 seconds in 25 milliliter deionized water; for Turbidity, Series 2: measured after standing 20 minutes; for Turbidity, Series 1: measured after standing one minute
Method: Yet another method to determine whether the desired level of hydrocarbon has been added to the sterol/stanol, is to measure the turbidity of the solution after 100 milligrams of the ground sterol/stanol/hydrocarbon are added to water. The greater turbidity value, the more effectively the solid solution is able to be dispersed in water. […] Preferred turbidity levels are greater than about 1500, preferably greater than 2000 and most preferably greater than 3000 Nephelometric Turbidity Units (NTU). As used herein turbidity is understood to be the same as defined by the United States Pharmacopeia, 15th Edition, the light scattering effect of suspended particles and turbidity as the measure of the decrease in the incident beam intensity per unit length of a given suspension. The range of turbidty values is from 0 to 20,000 NTU. As a point of reference the turbidity of water is zero. The turbidity of the samples is measured at room temperature.
A docusate sodium/β-sitosterol matrix was prepared. The sample was shaken for 30 seconds in a vial containing 25 milliliter deionized water. In Series 1, turbidity measurements were taken after allowing the shaken sample to stand one minute. In Series 2, measurements were made after standing for 20 minutes.

[2] = Wetting and time to disperse of powdered matrix in unstirred water; format: physicochemical; settings: similar conditions to Example 5 (200 mg in 250 ml water); up to three days vigorous stirring
Source text: Another technique for measuring the crystallinity of the solid matrix is to measure the time in which a ground powdered sample of the solid takes to disperse in unstirred water. When an appropriate amount of the appropriate hydrocarbon material has been added, […], preferably in less than about 45 seconds and most preferably less than about 30 seconds. Agitation, including mild agitation such as a stirring bar, can be employed to enhance the dissolution of the solid solution in water.
Additional sitosterol/docusate sodium matrices were prepared and added to water.

Structure (SMILES): CCCCC(CC)COC(=O)CC(C(=O)OCC(CC)CCCC)S(=O)(=O)[O-].[Na+] (centres unmarked) [100% docusate sodium, docusate sodium]
- Turbidity, Series 2 [1]: 0.441 NTU
- Turbidity, Series 1 [1]: 1.22 NTU

Structure (SMILES): CC[C@H](CC[C@@H](C)[C@H]1CC[C@H]2[C@@H]3CC=C4C[C@@H](O)CC[C@]4(C)[C@H]3CC[C@]12C)C(C)C [100% sterol, β-sitosterol]
- Turbidity, Series 2 [1]: 523 NTU
- Turbidity, Series 1 [1]: 1301 NTU
- Wetting in water [2]: does not wet at all
